Laboratory results taken from the supplement of paper PMC10307832.

Columns and labels:
Test in all cases: relative viability (nuclei count vs DMSO), 5 days (fraction); higher = more cells survive
[1] = compound: CC1=C(CC(=O)O)c2cc(F)ccc2/C1=C\c1ccc([S+](C)[O-])cc1 [Sulindac] + C[C@]1(O)C[C@@H](c2nc(-c3ccc4ccc(-c5ccccc5)nc4c3)c3c(N)nccn32)C1 [Linsitinib] (partner 1 µM)
Method in brief: (§1)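 Lung cancer cell lines were seeded in 1536-well plates and dosed by pin tool the next day, with either a single drug or a fixed anchor-drug dose combined with five library-drug doses (not always all listed) spaced in √10 steps. Five days later, one step fixed the cells and stained their nuclei (final 0.05% Triton X-100, 1% formaldehyde, 1 ug/ml Hoechst), and nuclei were counted on 4× images. Relative viability is the nuclei count in treated wells divided by the count in vehicle wells, and each value is the median of duplicate plates.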

[2] = compound: CC1=C(CC(=O)O)c2cc(F)ccc2/C1=C\c1ccc([S+](C)[O-])cc1 [Sulindac] + Cc1nc(NC(=O)N2CCC[C@H]2C(N)=O)sc1-c1ccnc(C(C)(C)C(F)(F)F)c1 [Alpelisib] (partner 2 µM)
Method in brief: as §1

[3] = compound: CC1=C(CC(=O)O)c2cc(F)ccc2/C1=C\c1ccc([S+](C)[O-])cc1 [Sulindac] + O=C(c1cc(Cc2n[nH]c(=O)c3ccccc23)ccc1F)N1CCN(C(=O)C2CC2)CC1 [Olaparib] (partner 8 µM)
Method in brief: as §1

[4] = compound: CC1=C(CC(=O)O)c2cc(F)ccc2/C1=C\c1ccc([S+](C)[O-])cc1 [Sulindac] + C[C@@H](Oc1cc(-c2cnn(C3CCNCC3)c2)cnc1N)c1c(Cl)ccc(F)c1Cl [Crizotinib] (partner 1 µM)
Method in brief: as §1

Row | Cell Line | relative viability ([1]; first compound 0.08 µM) | relative viability ([1]; first compound 0.253 µM) | relative viability ([1]; first compound 0.8 µM) | relative viability ([1]; first compound 2.53 µM) | relative viability ([1]; first compound 8 µM) | relative viability ([2]; first compound 0.08 µM) | relative viability ([2]; first compound 0.253 µM) | relative viability ([2]; first compound 0.8 µM) | relative viability ([2]; first compound 2.53 µM) | relative viability ([2]; first compound 8 µM) | relative viability ([3]; first compound 0.08 µM) | relative viability ([3]; first compound 0.253 µM) | relative viability ([3]; first compound 0.8 µM) | relative viability ([3]; first compound 2.53 µM) | relative viability ([3]; first compound 8 µM) | relative viability ([4]; first compound 0.08 µM) | relative viability ([4]; first compound 0.253 µM) | relative viability ([4]; first compound 0.8 µM) | relative viability ([4]; first compound 2.53 µM) | relative viability ([4]; first compound 8 µM)
1 | HCC-44 | 0.769 | 0.729 | 0.707 | 0.702 | 0.786 | 0.928 | 0.987 | 0.761 | 0.891 | 0.821 | 0.983 | 1.05 | 0.773 | 0.933 | 1.01 | 0.892 | 0.88 | 0.768 | 0.9 | 0.861
2 | HCC-78 | 0.521 | 0.493 | 0.439 | 0.454 | 0.501 | 0.353 | 0.387 | 0.352 | 0.27 | 0.374 | 0.972 | 0.812 | 0.763 | 0.784 | 0.686 | 0.305 | 0.326 | 0.327 | 0.296 | 0.401
3 | HCC-366 | 0.567 | 0.759 | 0.183 | 0.787 | 1.03 | 0.527 | 0.471 | 0.407 | 0.527 | 0.622 | 0.338 | 0.356 |  | 0.399 | 0.508 | 0.378 | 0.599 | 0.446 | 0.497 | 0.729
4 | HCC-827 | 0.932 | 0.939 | 0.988 | 0.937 | 0.967 | 0.985 | 0.979 | 0.839 | 0.943 | 1.11 | 0.636 | 0.683 | 0.573 | 0.659 | 0.734 | 0.927 | 0.98 | 0.942 | 0.914 | 0.956
5 | HOP-62 | 0.858 | 0.937 | 1.14 | 1.03 | 1.16 | 1.15 | 0.994 | 0.842 | 0.963 | 1.21 | 0.3 | 0.677 | 0.351 | 0.266 | 0.545 | 1.06 | 1.25 | 1.06 | 0.843 | 0.987
6 | IA-LM | 0.527 | 0.681 |  | 0.826 | 0.423 | 0.825 | 0.955 |  | 0.977 | 1.13 | 0.932 | 0.925 |  | 0.953 | 0.881 | 0.565 | 0.804 | 0.594 | 0.677 | 1.12
7 | LC-2-ad | 0.938 | 0.795 | 0.816 | 0.881 | 0.933 | 0.886 | 0.913 | 0.86 | 0.917 | 0.974 | 0.746 | 0.677 | 0.676 | 0.686 | 0.66 | 0.423 | 0.516 | 0.404 | 0.46 | 0.466
8 | LCLC-97TM1 | 0.187 | 0.167 | 0.157 |  | 0.209 | 0.272 | 0.278 | 0.238 |  | 0.236 | 0.481 | 0.531 | 0.473 | 0.308 | 0.606 | 0.435 | 0.373 | 0.319 |  | 0.418
9 | LCLC-103H | 1.18 | 1.22 | 0.94 | 1.04 | 1.2 | 1.06 | 1.07 | 0.892 | 0.869 | 1.09 | 0.856 | 0.757 | 0.695 | 0.798 | 0.82 | 1.09 | 1.11 | 0.952 | 1.11 | 1.09
10 | LK-2 | 0.464 | 0.376 | 0.532 | 0.417 | 0.577 | 1.42 | 1.14 |  |  | 1.38 | 0.766 | 0.998 | 0.514 | 0.592 | 0.808 | 0.185 | 0.243 |  |  | 0.216
11 | LOU-NH91 | 0.877 | 0.916 | 0.858 | 0.933 | 1.09 | 0.711 | 0.7 | 0.636 | 0.745 | 0.808 | 0.955 | 0.961 | 0.84 | 0.893 | 1.01 | 0.978 | 0.768 | 0.697 | 0.688 | 0.75
12 | LU99A | 0.578 | 0.524 | 0.493 | 0.499 | 0.659 | 0.468 | 0.564 | 0.455 | 0.498 | 0.596 | 0.294 | 0.231 | 0.259 | 0.241 | 0.311 | 0.636 | 0.515 | 0.543 | 0.474 | 0.57
13 | NCI-H522 |  |  |  |  |  |  |  |  |  |  | 0.694 | 0.735 | 0.558 | 0.633 | 0.61 |  |  |  |  | 
14 | NCI-H1395 | 1.09 | 1.07 | 0.993 | 0.948 | 1.18 | 0.948 | 1.05 | 0.975 | 0.973 | 1.08 | 0.43 | 0.424 | 0.467 | 0.45 | 0.483 |  |  |  |  | 
15 | NCI-H1563 | 1.13 | 1.15 | 1.03 | 1.15 | 1.31 | 0.915 | 0.853 | 0.86 | 0.884 | 0.923 |  |  |  |  |  | 0.84 | 0.92 | 0.806 | 0.785 | 0.888
16 | NCI-H1648 |  |  |  |  |  |  |  |  |  |  | 1.38 | 0.827 |  | 0.997 | 0.695 |  |  |  |  | 
17 | NCI-H1650 |  |  |  |  |  |  |  |  |  |  | 0.827 | 0.723 | 0.705 | 0.742 | 0.757 | 1.17 | 0.878 | 0.912 | 0.979 | 1.02
18 | NCI-H1793 | 0.856 | 0.77 | 0.471 | 1.12 | 1.12 | 0.744 | 0.78 | 0.587 | 0.857 | 0.804 | 0.963 | 0.934 |  | 0.973 | 1.08 |  |  |  |  | 
19 | NCI-H2170 |  |  |  |  |  | 1.03 | 0.904 | 0.613 | 0.835 | 0.912 | 0.658 | 0.576 | 0.493 | 0.591 | 0.626 | 1.21 | 1.21 | 0.771 | 1.2 | 1.23
20 | NCI-H2342 |  |  |  |  |  |  |  |  |  |  | 0.353 | 0.368 | 0.414 | 0.415 | 0.451 |  |  |  |  | 
21 | SW 900 |  |  |  |  |  |  |  |  |  |  | 0.968 | 0.965 |  |  | 1.06 |  |  |  |  | 
